Measurements taken from the NIST ThermoML archive (doi:10.1021/je0504111).

Tests used:
[1] = 298.15 K; for surface tension liquid-gas: Drop volume; for mass density: 101.33 kPa, Liquid
[2] = refractive index (Na D-line) (dimensionless); conditions: 298.15 K; 101.33 kPa; Liquid; Standard Abbe refractometry
[3] = refractive index (Na D-line) (dimensionless); xn = mol fraction of the nth substance listed; conditions: 298.15 K, 101 kPa, Liquid
[4] = xn = mol fraction of the nth substance listed; conditions: 298.15 K; for surface tension liquid-gas: Drop volume; for mass density: 101 kPa, Liquid

CCCOC(=O)CC [propyl propanoate]
Conditions | mass density [kg/m3] | refractive index | surface tension liquid-gas [mN/m]
[1] | 875.53 | – | 24.1
[2] | – | 1.3905 | –

Cc1cccc(C)c1 [1,3-dimethylbenzene]
Conditions | mass density [kg/m3] | refractive index | surface tension liquid-gas [mN/m]
[1] | 859.78 | – | 28.03
[2] | – | 1.4945 | –

CCCCCC [hexane]
Conditions | mass density [kg/m3] | refractive index | surface tension liquid-gas [mN/m]
[1] | 654.7 | – | 17.91
[2] | – | 1.3723 | –

CCCOC(=O)CC [propyl propanoate] + Cc1cccc(C)c1
[3]
Conditions | refractive index
x1 = 0.0448 | 1.4894
x1 = 0.1176 | 1.4814
x1 = 0.1702 | 1.4756
x1 = 0.2173 | 1.4704
x1 = 0.3134 | 1.4599
x1 = 0.3923 | 1.4515
x1 = 0.4461 | 1.4458
x1 = 0.4902 | 1.4412
x1 = 0.5421 | 1.4358
x1 = 0.5906 | 1.4308
x1 = 0.6442 | 1.4254
x1 = 0.7474 | 1.4151
x1 = 0.7982 | 1.4101
x1 = 0.8483 | 1.4052
x1 = 0.8942 | 1.4008
x1 = 0.9522 | 1.3952

Cc1cccc(C)c1 [1,3-dimethylbenzene] + CCCCCC
Conditions | mass density [kg/m3] | refractive index | surface tension liquid-gas [mN/m]
[3], x2 = 0.0431 | – | 1.4891 | –
[3], x2 = 0.083 | – | 1.484 | –
[3], x2 = 0.1562 | – | 1.4748 | –
[3], x2 = 0.2093 | – | 1.4682 | –
[3], x2 = 0.2997 | – | 1.4569 | –
[3], x2 = 0.3521 | – | 1.4502 | –
[3], x2 = 0.4276 | – | 1.4409 | –
[3], x2 = 0.5167 | – | 1.43 | –
[3], x2 = 0.5798 | – | 1.4223 | –
[3], x2 = 0.6769 | – | 1.4106 | –
[3], x2 = 0.7318 | – | 1.404 | –
[3], x2 = 0.8329 | – | 1.392 | –
[3], x2 = 0.8836 | – | 1.386 | –
[3], x2 = 0.9325 | – | 1.3803 | –
[4], x2 = 0.0431 | 850.57 | – | –
[4], x2 = 0.0522 | – | – | 27.13
[4], x2 = 0.0797 | – | – | 26.69
[4], x2 = 0.0825 | 842.28 | – | –
[4], x2 = 0.1442 | – | – | 25.66
[4], x2 = 0.1572 | 826.64 | – | –
[4], x2 = 0.2008 | – | – | 24.85
[4], x2 = 0.2093 | 815.69 | – | –
[4], x2 = 0.2281 | – | – | 24.48
[4], x2 = 0.2575 | 805.59 | – | –
[4], x2 = 0.2997 | 796.8 | – | –
[4], x2 = 0.3075 | – | – | 23.5
[4], x2 = 0.3563 | 785.03 | – | –
[4], x2 = 0.3603 | – | – | 22.91
[4], x2 = 0.4106 | – | – | 22.39
[4], x2 = 0.4174 | – | – | 22.33
[4], x2 = 0.4278 | 770.24 | – | –
[4], x2 = 0.483 | 758.86 | – | –
[4], x2 = 0.5086 | – | – | 21.5
[4], x2 = 0.5167 | 751.98 | – | –
[4], x2 = 0.5677 | – | – | 21.01
[4], x2 = 0.5833 | 738.31 | – | –
[4], x2 = 0.6294 | 728.97 | – | –
[4], x2 = 0.6431 | – | – | 20.41
[4], x2 = 0.6769 | 719.32 | – | –
[4], x2 = 0.6771 | – | – | 20.15
[4], x2 = 0.7318 | 708.21 | – | –
[4], x2 = 0.7418 | – | – | 19.7
[4], x2 = 0.7668 | – | – | 19.54
[4], x2 = 0.7817 | 698.13 | – | –
[4], x2 = 0.8329 | 687.89 | – | –
[4], x2 = 0.8545 | – | – | 18.99
[4], x2 = 0.8802 | – | – | 18.83
[4], x2 = 0.8914 | 676.22 | – | –
[4], x2 = 0.9446 | 665.65 | – | –
[4], x2 = 0.96 | – | – | 18.29
